# US7098218B2, “Steroidal compounds for inhibiting steroid sulphatase” (priority 2001, dated 2006)
# Where “and” joins values, the source holds several entries; their conditions need not be identical. Identical values can stand only once.
# Key:
# [1] = system: ovariectomised rats (uterine growth); experiment: In vivo oestrogenicity, uterine growth in ovariectomised rats (Protocol 4); design: species or system rat; settings: 10 mg/Kg/day for five days orally, uterine weight
# Description: The compounds of the present invention may be studied using an animal model, in particular in ovariectomised rats. In this model, compounds which are oestrogenic stimulate uterine growth.
# The compound (10 mg/Kg day for five days) was administered orally to rats with another group of animals receiving vehicle only (propylene glycol). A further group received the estrogenic compound EMATE subcutaneously in an amount of […] for five days. At the end of the study uteri were obtained and weighed with the results being expressed as uterine weight/whole body weight×100.
# [2] = biological target: T1, human placental steroid sulphatase (Homo sapiens, UniProt P08842); experiment: Inhibition of oestrone sulphatase activity in human placental microsomes; type: biochemical
# T1 construct: Placental microsomes (100000 g fraction) were prepared from a positive-positive human placenta from a normal-term pregnancy; from tissue; host or cells: human placenta, microsomal fraction
# T1 sequence (P08842 22-583): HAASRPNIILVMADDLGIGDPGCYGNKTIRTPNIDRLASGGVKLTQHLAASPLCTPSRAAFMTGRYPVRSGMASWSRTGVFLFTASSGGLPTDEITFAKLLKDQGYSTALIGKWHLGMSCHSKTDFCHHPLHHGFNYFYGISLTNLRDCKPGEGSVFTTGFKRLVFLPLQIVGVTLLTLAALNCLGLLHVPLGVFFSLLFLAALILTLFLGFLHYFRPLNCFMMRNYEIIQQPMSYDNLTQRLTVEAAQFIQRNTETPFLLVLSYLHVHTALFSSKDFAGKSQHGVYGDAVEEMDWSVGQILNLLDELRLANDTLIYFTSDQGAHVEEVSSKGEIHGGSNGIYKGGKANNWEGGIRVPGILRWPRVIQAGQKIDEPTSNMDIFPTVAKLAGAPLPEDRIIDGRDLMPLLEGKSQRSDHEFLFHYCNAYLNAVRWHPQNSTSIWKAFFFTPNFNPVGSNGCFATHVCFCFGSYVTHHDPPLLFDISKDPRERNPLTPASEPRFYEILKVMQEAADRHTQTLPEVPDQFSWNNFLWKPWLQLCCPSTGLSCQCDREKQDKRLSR
# rat liver STS = biological target: T2, rat liver STS (Rattus norvegicus, UniProt P15589); experiment: Inhibition of oestrone sulphatase activity in vivo, rat liver (Protocol 3); settings: rats; 10 mg/Kg/day for five days orally
# T2 construct: samples of liver tissue were obtained and oestrone sulphatase activity assayed; from tissue; host or cells: rat liver
# T2 sequence (P15589 20-577): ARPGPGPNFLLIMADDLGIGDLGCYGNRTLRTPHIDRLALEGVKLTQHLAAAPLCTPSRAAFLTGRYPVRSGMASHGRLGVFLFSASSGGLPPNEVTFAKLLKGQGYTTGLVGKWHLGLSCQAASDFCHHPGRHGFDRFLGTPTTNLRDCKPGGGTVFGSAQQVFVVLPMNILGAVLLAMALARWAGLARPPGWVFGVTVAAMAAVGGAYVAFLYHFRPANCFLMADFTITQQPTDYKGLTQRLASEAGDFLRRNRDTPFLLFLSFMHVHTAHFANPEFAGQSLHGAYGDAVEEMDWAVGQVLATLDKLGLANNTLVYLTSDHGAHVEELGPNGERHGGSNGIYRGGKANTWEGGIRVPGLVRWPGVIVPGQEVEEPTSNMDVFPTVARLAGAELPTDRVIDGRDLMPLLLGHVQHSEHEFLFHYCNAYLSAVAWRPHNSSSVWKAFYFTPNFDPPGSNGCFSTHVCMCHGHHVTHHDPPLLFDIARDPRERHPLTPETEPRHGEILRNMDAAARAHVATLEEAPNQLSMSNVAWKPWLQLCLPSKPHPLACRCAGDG
# Description: The compounds of the present invention may be studied using an animal model, in particular in ovariectomised rats. In this model compounds which are oestrogenic stimulate uterine growth.
# The compound (10 mg/Kg/day for five days) was administered orally to rats with another group of animals receiving vehicle only (propylene glycol). A further group received the compound EMATE subcutaneously in an amount of 10 μg/day for five days. At the end of the study samples of liver tissue were obtained and oestrone sulphatase activity assayed using 3 H oestrone sulphate as the substrate as previously described (see PCT/GB95/02638).
# [3] = biological target: T3, E1-STS in intact MCF-7 cells (Homo sapiens, UniProt P08842); design: dose or concentration left out as unconfirmed; settings: cited from earlier work
# T3 construct: endogenous in cells; host or cells: MCF-7 human breast cancer cells
# T3 sequence (P08842 22-583): T1 sequence (P08842 22-583)
# [4] = system: rats (uterotrophic activity); settings: cited from earlier work
# breast tumour cells = settings: cited from earlier work
# STS = biological target: T4, STS (Homo sapiens, UniProt P08842); experiment: biochemical
# T4 construct: can be assessed using either intact MCF-7 breast cancer cells or placental microsomes
# T4 sequence (P08842 22-583): T1 sequence (P08842 22-583)
# steroid sulphatase = biological target: T5, steroid sulphatase (Homo sapiens, UniProt P08842); settings: cited from earlier work
# T5 sequence (P08842 22-583): T1 sequence (P08842 22-583)
# [5] = read-out: Mean % Inhibition ± SD
compound,measurement,setting,value
CCCN1C(=O)CC2C3CCc4cc(OS(N)(=O)=O)ccc4C3CC[C@]2(C)C1=O (some centres unmarked) [STX213],oestrogenicity (FIG. 2),[1],lack of oestrogenicity
"C[C@]12CCC3c4ccc(OS(N)(=O)=O)cc4CCC3C1CC(=O)N(Cc1cccnc1)C2=O (some centres unmarked) [STX 237, 3-Sulfamoyl-N-(3-picolyl)-16,17-seco-estra-1,3,5(10)-triene-16,17-imide]",inhibition of STS (in words),[2]; in vitro,Good inhibition
same,times more potent than EMATE,[2]; ratio of IC50 values versus EMATE,18 times
same,inhibition of rat liver STS (FIG. 3),rat liver STS,inhibition of rat liver STS
same,oestrogenicity (FIG. 2),[1],lack of oestrogenicity
"CCCN1C(=O)CC2C3CCc4cc(OS(N)(=O)=O)ccc4C3CC[C@]2(C)C1=O (some centres unmarked) [STX 213, 3Sulfamoyl-N-propyl-16,17-seco-estra-1,3,5(10)-triene-16,17-imide]",IC50,[2],1 nM
same,inhibition at 0.0001 µM,[2]; [5],21.2 ± 0.8%
same,inhibition at 0.001 µM,[2]; [5],49.3 ± 1.2%
same,inhibition at 0.01 µM,[2]; [5],64.1 ± 4.6%
same,inhibition at 0.1 µM,[2]; [5],84.6 ± 1.3%
same,inhibition at 1 µM,[2]; [5],96.8 ± 0.8%
same,inhibition at 10 µM,[2]; [5],99.3 ± 1.1%
same,inhibition of rat liver STS (FIG. 3),rat liver STS,inhibition of rat liver STS
"C[C@]12CC[C@@H]3c4ccc(OS(N)(=O)=O)cc4CC[C@H]3[C@@H]1CCC2=O [EMATE, estrone-3-O-sulfamate]",IC50,[2],8 nM
same,inhibition of E1-STS activity,[3],more than 99%
same,"oral uterotrophic activity, times higher than that of oestradiol",[4],100 times
"C[C@]12CC[C@@H]3c4ccc(O)cc4CC[C@H]3[C@@H]1CC[C@@H]2O [Oestradiol, oestradiol]","proliferative effect, fold greater than oestrone",breast tumour cells,10 fold
"NS(=O)(=O)Oc1ccc2c3c(c(=O)oc2c1)CCCCC3 [667 Coumate, reference compound]",667 Coumate value: % Inhibition,STS; 0.005 µM,5 nM = 63%Inhibition and 5 nM = 56%Inhibition
same,inhibition at 0.005 µM,STS; read-out: 667 Coumate value: % Inhibition,63%
same,times more potent than EMATE in vitro,steroid sulphatase,~3 times
